Our source for the IC50 values is publication PMC2644263 (Molecular cell, 2008).

The term IC50 denotes the concentration that gives 50% inhibition.

The target of this test is Bub1 (Homo sapiens, UniProt O43683). Kind of test: in vitro […] kinase assay with purified kinase, […] ATP, phosphoimager. In kind it is biochemical.
Chain of Bub1 (O43683 724-1085): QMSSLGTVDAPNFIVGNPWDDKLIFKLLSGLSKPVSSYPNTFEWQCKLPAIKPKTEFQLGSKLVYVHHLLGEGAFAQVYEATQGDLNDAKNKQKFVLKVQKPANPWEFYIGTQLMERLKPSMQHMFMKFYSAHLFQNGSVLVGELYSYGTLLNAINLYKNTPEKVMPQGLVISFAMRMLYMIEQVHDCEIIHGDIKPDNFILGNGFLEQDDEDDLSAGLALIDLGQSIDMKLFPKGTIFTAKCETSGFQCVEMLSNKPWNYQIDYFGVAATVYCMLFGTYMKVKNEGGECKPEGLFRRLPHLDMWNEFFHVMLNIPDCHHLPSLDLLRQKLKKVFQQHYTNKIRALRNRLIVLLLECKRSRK

The compound `CC(C)(C)n1nc(Cc2ccccc2O)c2c(N)ncnc21` [2OH-BNPP1] yielded an IC50 of approximately 250 nM.
